According to paper PMC3047509 (Journal of the American Chemical Society, 2011):
Bridge positions count the residues as written; N and C are the ends. Peptide text beside a SMILES is read from it.

Legend:
CBP BRD = CBP BRD (Homo sapiens, UniProt Q92793); experiment: competition fluorescent polarization; type: binding; conditions: FP competition assay; relative to linear p53-K382ac
[1] = system: p53-induced p21 activation; experiment: p53-based p21-luciferase assay; type: cell-based, human; conditions: HCT116 cells, doxorubicin treatment
[2] = system: endogenous p53 and p21 proteins in HCT116 cells; experiment: western blot of endogenous p53 and p21 after doxorubicin; type: cell-based, human; conditions: peptide 12 hours, then doxorubicin 300 ng/ml for 24 hrs

Chain of CBP BRD (Q92793 1085-1192 limits assumed): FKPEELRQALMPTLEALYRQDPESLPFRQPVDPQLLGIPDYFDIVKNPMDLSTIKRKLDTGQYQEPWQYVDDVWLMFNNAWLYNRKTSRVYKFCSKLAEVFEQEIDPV

Compound	fold increase in binding affinity over linear p53-K382ac peptide (CBP BRD)	inhibition of p53-induced p21 luciferase activation [1]	protein level of endogenous p53 and p21 [2]
CC(=O)NCCCC[C@@H]1NC(=O)[C@H](CCCCN)NC(=O)[C@H](Cc2c[nH]cn2)NC(=O)[C@@H](N)CSSC[C@@H](C(=O)N[C@@H](Cc2ccccc2)C(=O)N[C@@H](CCCCN)C(N)=O)NC(=O)[C@H](CC(C)C)NC1=O [compound 1] (H-CHKK(Ac)LCFK-NH2; disulfide 1-6; N-terminus and C-terminus assumed)	9 fold		
CC(=O)NCCCC[C@@H]1NC(=O)[C@H](CCCCN)NC(=O)[C@H](Cc2c[nH]c3ccccc23)NC(=O)[C@@H](N)CSSC[C@@H](C(=O)N[C@@H](Cc2ccccc2)C(=O)N[C@@H](CCCCN)C(N)=O)NC(=O)[C@H](CC(C)C)NC1=O [compound 4] (H-CWKK(Ac)LCFK-NH2; disulfide 1-6; N-terminus and C-terminus assumed)	24 fold	dose-dependent inhibition	effectively reduced the protein level of endogenous p53 and p21
